According to patent US9216995B2, “Pyridone derivative having integrase inhibitory activity” (SHIONOGI & CO., LTD., priority 2010, dated 2015):

Legend:
HIV = test: Anti-HIV activity (HeLa-CD4 cells, β-gal reporter assay); type: cell-based; conditions: Human immunodeficiency virus 1, 72 h, concentration to inhibit HIV infection by 50%, 3 days, luminescence
Method: A HeLa-CD4 cell suspension (2.5×10^4 cell/well) was dispensed to each well on an assay plate. After incubating at 37° C. for 1 hour under condition of 5% CO2, a solution to dilute a compound (50 μL) was added to each well (provided that a cell control was excluded). A culture solution (50 μL) was added to a well of the cell control. The plate was incubated at 37° C. for 3 days under condition of 5% CO2.
After the culture solution was aspirated from each well, 100 μL of a cell lysate of the reporter assay kit—β gal—was added to all wells, and then the plate was frozen at −80° C. to completely lyse cells. The plate was left at room temperature to unfreeze the cell lysate, it was centrifuged at 1200 rpm for 5 minutes at room temperature (Kubota centrifuge KR-600P). 20 μL of the supernatant was dispensed from each well to 96-well black plate, 100 μL of a luminescent reagent of the reporter assay kit—β gal—was added to each well. The plate was incubated at room temperature for 1 hour. The luminescence intensity from each well was measured by MicroBeta TRILUX instrument (PerkinElmer). A concentration (conc.) to inhibit HIV infection by 50% was calculated to obtain an EC50 value.

HIV integrase = HIV integrase (Human immunodeficiency virus type 1 group M subtype B, UniProt P04585); test: Integrase inhibitory activity (strand transfer ELISA on streptavidin plates); type: biochemical; conditions: integrase inhibition rate, absorbance OD 405 nm
Method: By the same method as that described in Experimental Example 1 of Patent Document 2, a substrate DNA solution (2 μmol/μl) and a target DNA solution (5 μmol/μl) were prepared. […] Each sequence of a substrate DNA and a target DNA is as described in the same Experimental Example.
(2) Measurement of Inhibition Rate (IC50 Value)
Onto Immobilizer—Streptavidin Plates (manufactured by NUNC) was added 50 μl of a substrate DNA solution (2 μmol/μl). After adsorbing at room temperature for 60 minutes under shaking, it was washed with a phosphate buffer two times.
Then, to each well prepared as described above were added 12 μl of a buffer (composition: 150 mM MOPS (pH7.2), 75 mM MnCl2, 50 mM 2-mercaptoethanol, 25% glycerol, 500 μg/ml bovine serum albumin-fraction V), and 51 μl of a reaction solution prepared from 39 μl of distilled water. Then, 9 μl of an integrase solution (30 μmol) was added, and the mixture was mixed well. To a well as a negative control (NC) was added 9 μl of a diluting solution (composition: 20 mM MOPS (pH 7.2), 400 mM potassium glutamate, 1 mM EDTA, 0.1% NP-40, 20% glycerol, 1 mM DTT, 4 M urea), and this was mixed well using a plate mixer.
After the plate was incubated at 30° C. for 60 minutes, the reaction solution was discarded, followed by washing with 200 μl of a washing buffer (composition: 150 mM MOPS (pH 7.2), 50 mM 2-mercaptoethanol, 25% glycerol, 500 μg/ml bovine serum albumin-fraction V) three times.
Then, to each well were added 12 μl of a buffer (composition: 150 mM MOPS (pH 7.2), 75 mM MgCl2, 50 mM 2-mercaptoethanol, 25% glycerol, 500 μg/ml bovine serum albumin-fraction V), and 53 μl of a reaction solution prepared from 41 μl of distilled water. Further, 6 μl of a solution of a test compound in DMSO was added to each well, and 6 μl of DMSO was added to a well as a positive control (PC), followed by mixing well using a plate mixer. After the plate was incubated at 30° C. for 60 minutes, 1 μl of a target DNA (5 μmol/μl) was added, and this was mixed well using a plate mixer.
After each plate was incubated at 30° C. for 10 minutes, the reaction solution was discarded, followed by washing with a phosphate buffer two times. Then, an anti-digoxigenin antibody labeled with alkaline phosphatase (sheep Fab fragment: manufactured by Boehringer) was diluted 2000-fold with an antibody diluting solution, 100 μl of the diluent was added to bind at 30° C. for 1 hour, and this was washed successively with a phosphate buffer containing 0.05% Tween 20 two times, and a phosphate buffer two times. […]
C abs.: Absorbance of well of compound
NC abs.: Absorbance of NC
PC abs.: Absorbance of PC

SMILES	EC50 (HIV)	IC50 (HIV integrase)
C[C@@H]1CCO[C@H]2Cn3cc(C(=O)NCc4cc5ccccc5s4)c(=O)c(O)c3C(=O)N12 [Compound A-20]	11 nM	28.4 nM
C[C@@H]1CCO[C@H]2Cn3cc(C(=O)NCCC4CCCCC4)c(=O)c(O)c3C(=O)N12 [Compound A-42]	46 nM	
C[C@@H]1CCO[C@H]2Cn3cc(C(=O)NCc4ccsc4)c(=O)c(O)c3C(=O)N12 [Compound A-56]	6.4 nM	29.7 nM
C[C@@H]1CCO[C@H]2Cn3cc(C(=O)NNC(=O)c4ccc(F)cc4)c(=O)c(O)c3C(=O)N12 [Compound A-38]	15 nM	
C[C@@H]1CCO[C@H]2Cn3cc(C(=O)NC(c4ccccc4)c4ccccc4)c(=O)c(O)c3C(=O)N12 [Compound A-15]	16 nM	
C[C@@H]1CCO[C@H]2Cn3cc(C(=O)NCc4cccs4)c(=O)c(O)c3C(=O)N12 [Compound A-39]	11 nM	27 nM
C[C@@H]1CCO[C@H]2Cn3cc(C(=O)NCC4CCCCCC4)c(=O)c(O)c3C(=O)N12 [Compound A-50]	32 nM	13.5 nM

Continued, in another order:

EC50 (HIV)	SMILES	IC50 (HIV integrase)
25 nM	C[C@@H]1CCO[C@H]2Cn3cc(C(=O)NC[C@@H]4CCCO4)c(=O)c(O)c3C(=O)N12 [Compound A-21]	
38 nM	C[C@@H]1CCO[C@H]2Cn3cc(C(=O)NCc4nc5ccccc5s4)c(=O)c(O)c3C(=O)N12 [Compound A-66]	
22 nM	C[C@@H]1CCO[C@H]2Cn3cc(C(=O)NCCc4cccs4)c(=O)c(O)c3C(=O)N12 [Compound A-65]	
42 nM	C[C@@H]1CCO[C@H]2Cn3cc(C(=O)NCc4ccoc4)c(=O)c(O)c3C(=O)N12 [Compound A-41]	
32 nM	C[C@@H]1CCO[C@H]2Cn3cc(C(=O)NCc4nccs4)c(=O)c(O)c3C(=O)N12 [Compound A-12]	
